In US6797672B2, “Fungicidal compositions based on fludioxonil” (Syngenta Crop Protection, Inc., priority 2003, dated 2004):
Like-named read-outs stand apart in the source and are kept apart here.

System: Botrytis cinerea
Assay: Efficacy against Botrytis cinerea on apple (fruit cv. Golden Delicious)
Type: in vivo
Conditions: 120 h, read-out: % activity observed
From the text: A synergistic effect exists whenever the action of an active ingredient combination is greater than the sum of the actions of the individual components.
The action to be expected E for a given active ingredient combination obeys the so-called COLBY formula and can be calculated as follows (COLBY, S. R. “Calculating synergistic and antagonistic responses of herbicide combination”. Weeds, Vol. 15, pages 20-22; 1967):
ppm=milligrams of active ingredient (=a.i.) per litre of spray mixture
X=% action by active ingredient I using p ppm of active ingredient
Y=% action by active ingredient II using q ppm of active ingredient.
According to Colby, the expected (additive) action of active ingredients I+II using p+q ppm of active ingredient is [formula]
If the action actually observed (O) is greater than the expected action (E), then the action of the combination is superadditive, i.e. there is a synergistic effect.
In an apple fruit cv. Golden Delicious 3 holes were drilled and each filled with 50 μl droplets of the formulated test composition. Two hours after application 50 μl of a spore suspension of B. cinerea (4×10^5 conidia/ml) were pipetted on the application sites. After an incubation period of 5 days at 20° C. in a growth chamber the % infected fruit area was determined. The activity was calculated relative to the disease rate on untreated apple fruits. The fungicide interactions in the mixture were calculated according to Colby.

Row | SMILES | inhibition at 0.1 µg/mL | inhibition at 0.5 µg/mL | inhibition at 2.5 µg/mL | inhibition at 5 µg/mL | inhibition at 0.5 µg/mL (Thiabendazole 0.5 mg a.i./l, apple, 5 days at 20° C.) | inhibition at 1 µg/mL (Thiabendazole 1 mg a.i./l, apple, 5 days at 20° C.) | inhibition at 2.5 µg/mL (Thiabendazole 2.5 mg a.i./l, apple, 5 days at 20° C.) | inhibition at 5 µg/mL (Thiabendazole 5 mg a.i./l, apple, 5 days at 20° C.) | inhibition at 25 µg/mL (Thiabendazole 25 mg a.i./l, apple, 5 days at 20° C.)
1 | N#Cc1c[nH]cc1-c1cccc2c1OC(F)(F)O2 [Fludioxonil, 4-(2,2-difluoro-1,3-benzodioxol-7-yl)pyrrole-3-carbonitrile] | 2% | 24% | 54% | 67% |  |  |  |  | 
2 | c1ccc2[nH]c(-c3cscn3)nc2c1 [Thiabendazole, 2-(thiazol-4-yl)benzimidazol] |  |  |  |  | 5% | 10% | 10% | 12% | 5%
